From PubChem BioAssay AID1996 come the findings set out here.

In brackets after ≈: the same amount, converted by molar mass.

For this data set the following is noted: buffer; pH 7.4; 200.0 µM.
The term solubility (kinetic) denotes the concentration staying in solution when a stock, usually in DMSO, is diluted into the medium. For the compound `CC(=O)Nc1c(-c2ccc(Cl)cc2)c(=O)c2ccccc2n1C`, the solubility (kinetic) came to 14.8 µg/mL (≈ 45.3 µM).

Consider `COC(=O)c1c(C)[nH]c(C=O)c1-c1ccccc1`, for which the solubility (kinetic) was over 36.5 µg/mL.

As for `O=C1NC(=O)C(c2ccccc2)(c2ccccc2)N1`, the solubility (kinetic) is over 37.8 µg/mL.

Turning to `COC(=O)Nc1ccc(S(=O)(=O)Nc2ncccn2)cc1`, the solubility (kinetic) was over 46.2 µg/mL.

Compound `Cc1cc(=O)oc2cc(OCC(=O)NC3CCCCC3)ccc12` returned a solubility (kinetic) of 7.5 µg/mL (≈ 23.8 µM).

In the case of `Cc1nccn1-c1ccc(C=O)cc1`, the kinetic solubility stood at 27.6 µg/mL (≈ 148 µM).

`O=C(COC(=O)c1ccc(F)c(S(=O)(=O)N2CCOCC2)c1)NCc1ccc(F)cc1` returned a kinetic solubility of over 68.2 µg/mL.

`O=C(NCCN1CCCCC1)Nc1ccc([N+](=O)[O-])cc1` gave a solubility (kinetic) of over 43.9 µg/mL.

With `Cc1ccc(C(=O)CSc2nc(O)cc(=O)[nH]2)cc1C`, the solubility (kinetic) is over 43.6 µg/mL.

Take `CCOC(=O)N1CCN(C(=O)Nc2ccccc2)CC1`: the kinetic solubility is over 41.6 µg/mL.

Consider `CC1(C)Cc2sc3c(=O)[nH]c(=S)[nH]c3c2CO1`, for which the solubility (kinetic) was over 40.3 µg/mL.

Turning to `CCC(C)Nc1cc(C)c(C#N)c2nc3ccccc3n12` (configuration not stated), the kinetic solubility was 3.7 µg/mL (≈ 13.3 µM).

For `COc1ccc(C(=O)Nc2ccc3nc(C)c(C)nc3c2)cc1`, the solubility (kinetic) is 5.3 µg/mL (≈ 17.2 µM).

Turning to `COCCNc1oc(Cc2cccc3ccccc23)nc1C#N`, the kinetic solubility came out at 43.3 µg/mL (≈ 141 µM).

Compound `O=C(CSc1nncs1)NNC(=O)c1ccccc1Br` gave a solubility (kinetic) of over 56 µg/mL.

`NC(=O)CCn1ccc2ccccc21` yielded a kinetic solubility of over 28.2 µg/mL.

In turn, `O=C(O)c1cc(-c2ccco2)nc2cc3ccccc3cc12` showed a solubility (kinetic) of over 43.4 µg/mL.

As for `O=C(NCC(c1ccco1)N1CCc2ccccc21)c1cccc(F)c1` (configuration not stated), the solubility (kinetic) was 16.3 µg/mL (≈ 46.5 µM).

`COc1ccc(C(C)=O)cc1CN1CC=C(c2ccccc2)CC1` came in with a solubility (kinetic) of 28.8 µg/mL (≈ 89.6 µM).

Compound `CCCCCCCCCCCCN1C(=O)CSC1c1cccnc1` (configuration not stated) came in with a kinetic solubility of under 0.4 µg/mL.

In turn, `CCOc1nc(Nc2ccc(Cl)cc2)nc(OCC)n1` returned a solubility (kinetic) of 3.5 µg/mL (≈ 11.9 µM).

For the compound `Cc1ccc2oc(=O)c(/C=C(\O)c3ccco3)nc2c1`, the solubility (kinetic) came out at 31.7 µg/mL (≈ 118 µM).

For the compound `CCOc1ccc(CCNC(=O)CCC(=O)c2cccs2)cc1OCC`, the kinetic solubility is over 56.3 µg/mL.

Compound `Cc1ccc(C(=O)NCCc2nnc(SCC(=O)Nc3cccc(C(=O)O)c3)n2C)cc1` came in with a kinetic solubility of over 68 µg/mL.

`O=C(c1cc2ccccc2o1)N1CCN(c2ncccn2)CC1`: the solubility (kinetic) was over 46.3 µg/mL.

In the case of `Cc1cc(C)c2nc(SCC(=O)Nc3cc(C)on3)c(C)cc2c1`, the kinetic solubility amounted to 0.3 µg/mL (≈ 0.879 µM).

Turning to `Cc1ccccc1CNC(=O)Nc1ccc(Cl)cc1`, the solubility (kinetic) worked out at 0.3 µg/mL (≈ 1.09 µM).

Turning to `CC(c1ccccc1)C(CC(=O)O)C(=O)Nc1ccc(Cl)c(Cl)c1` (configuration not stated), the kinetic solubility amounted to 46 µg/mL (≈ 126 µM).

`COc1ccc(/C=C/C(=O)O)cc1S(=O)(=O)N1CCCC1` gave a kinetic solubility of over 46.7 µg/mL.

`C=CCN(CC=C)C(=S)Nc1ccc2nsnc2c1` showed a solubility (kinetic) of over 43.6 µg/mL.

`Cc1ccc(CCC(=O)NCc2ccccc2)o1` had a solubility (kinetic) of over 36.5 µg/mL.

`CN(C)c1ccc(NC(=O)c2ccc3nc[nH]c3c2)cc1` returned a solubility (kinetic) of over 42 µg/mL.

As to `CCCCCCc1c(C)[nH]c2nc3ccccc3n2c1=O`, the kinetic solubility was under 0.2 µg/mL.

Compound `O=C1C(Nc2ccccc2)=CC(c2ccc(O)cc2)N1c1ccccc1` (configuration not stated) displayed a kinetic solubility of 2 µg/mL (≈ 5.84 µM).

As to `O=C(Nc1cccc(C(F)(F)F)c1)c1c(O)c2ccccc2[nH]c1=O`, the solubility (kinetic) was under 0.4 µg/mL.

`Cc1cc(C=C2C(=O)NC(=O)NC2=O)c(C)n1-c1cccnc1` registered a solubility (kinetic) of 10.6 µg/mL (≈ 34.2 µM).

`CC1CCCCC1NC(=O)CCS(=O)(=O)c1ccc(Cl)cc1` (configuration not stated) came in with a solubility (kinetic) of 22.8 µg/mL (≈ 66.3 µM).

In the case of `Cc1c(Cl)cccc1NC(=O)CCCN1C(=O)c2cccnc2C1=O`, the kinetic solubility was 39.5 µg/mL (≈ 110 µM).

In the case of `CC1CCN(CC(C)OC(=O)c2ccco2)CC1.Cl` (configuration not stated), the kinetic solubility is over 43.2 µg/mL.

`COc1cc(CNCc2ccco2)cc(OC)c1O.Cl` returned a kinetic solubility of 41.4 µg/mL.

For `CC(OC(=O)C1CC1)C(=O)Nc1cc(C(F)(F)F)ccc1Cl` (configuration not stated), the kinetic solubility was 32 µg/mL (≈ 95.3 µM).

`NC(=NC(=O)c1ccc(OC(F)(F)F)cc1)c1ccc(C(F)(F)F)cn1` showed a solubility (kinetic) of under 0.3 µg/mL.

In the case of `C=CCCC(=O)N1CCCC(C(=O)c2cccc(OC)c2)C1` (configuration not stated), the solubility (kinetic) amounted to 40.7 µg/mL (≈ 135 µM).

Consider `CCOC(=O)C1=C(C)NC(SC)=C(C#N)C1CC(C)C` (configuration not stated), for which the kinetic solubility came to 2.3 µg/mL (≈ 7.81 µM).

Regarding `OCCC1CN(C2CCSCC2)CCN1C1CCCC1` (configuration not stated), the solubility (kinetic) was determined as 34.5 µg/mL (≈ 116 µM).

Turning to `O=C(CN1C(=O)COc2ccccc21)N1CCCC1`, the solubility (kinetic) was over 39 µg/mL.

Regarding `COc1ccc(NC(=O)CNC(=O)c2ccco2)cc1`, the solubility (kinetic) amounted to 40.5 µg/mL (≈ 148 µM).

On to `CC(NC(=O)c1ccncc1)c1ccc(Br)cc1` (configuration not stated), for which the kinetic solubility is over 45.8 µg/mL.

In turn, `Cc1cc(S(=O)(=O)NCCCN2CCOCC2)c(Cl)cc1Cl` had a solubility (kinetic) of 42.6 µg/mL (≈ 116 µM).

Take `COc1ccc(C(C)NS(=O)(=O)Cc2ccccc2)cc1` (configuration not stated): the kinetic solubility turned out to be 43 µg/mL (≈ 141 µM).

`CCOc1ccc(S(=O)(=O)NCCCl)cc1` returned a kinetic solubility of over 39.6 µg/mL.

As to `Cc1cc(C)c(/C=C(\C#N)S(=O)(=O)c2ccccc2)[nH]1`, the kinetic solubility is 0.5 µg/mL (≈ 1.75 µM).
